For one data set, the target named is hCA IX (Homo sapiens, UniProt Q16790). The experiment in a line: Stopped flow CO2 hydrase assay, hCA IX. Particulars: for Selectivity index I/IX: inhibition of hCA IX over hCA I; for Selectivity index I/IX / Selectivity index II/IX: calculated from Ki; for Selectivity index II/IX: inhibition of hCA IX over hCA II.
The target in a further data set is hCA II (Homo sapiens, UniProt P00918). The experiment in a line: Stopped flow CO2 hydrase assay, hCA II.
The target in the next data set is hCA XII (Homo sapiens, UniProt O43570). The experiment in a line: Stopped flow CO2 hydrase assay, hCA XII. Particulars: for Selectivity index I/XII: inhibition of hCA XII over hCA I; for Selectivity index I/XII / Selectivity index II/XII: calculated from Ki; for Selectivity index II/XII: inhibition of hCA XII over hCA II.
Sequence of hCA XII (O43570 25-354): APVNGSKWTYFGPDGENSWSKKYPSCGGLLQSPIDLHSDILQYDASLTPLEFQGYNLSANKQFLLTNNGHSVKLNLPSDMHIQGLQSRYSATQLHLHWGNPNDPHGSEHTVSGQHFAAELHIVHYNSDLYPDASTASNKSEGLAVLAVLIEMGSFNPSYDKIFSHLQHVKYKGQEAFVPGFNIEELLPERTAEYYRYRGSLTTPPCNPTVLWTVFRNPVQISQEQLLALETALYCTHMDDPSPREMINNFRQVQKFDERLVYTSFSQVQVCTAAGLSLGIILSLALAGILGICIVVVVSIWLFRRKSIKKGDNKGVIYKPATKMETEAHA
A further data set addresses hCA I (Homo sapiens, UniProt P00915). The experiment in a line: Stopped flow CO2 hydrase assay, hCA I.
For another data set, the target named is CA IX. The note with it: cited from earlier work.

Some results are limits rather than exact numbers.

Sequence of hCA I (P00915 whole entry): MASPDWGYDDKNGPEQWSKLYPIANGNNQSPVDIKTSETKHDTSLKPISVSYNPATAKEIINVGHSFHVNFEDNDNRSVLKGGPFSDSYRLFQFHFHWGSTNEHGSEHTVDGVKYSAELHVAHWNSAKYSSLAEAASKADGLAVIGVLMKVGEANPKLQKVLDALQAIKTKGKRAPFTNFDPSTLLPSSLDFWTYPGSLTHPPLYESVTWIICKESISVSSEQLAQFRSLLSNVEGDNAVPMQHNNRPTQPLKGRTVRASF
Method for hCA II: (§1) The uncatalyzed rates were determined in the same manner and subtracted from the total observed rates. Stock solutions of inhibitor (0.1 mM) were prepared in distilled-deionized water and dilutions up to 0.01 nM were done thereafter with the assay buffer. Inhibitor and enzyme solutions were preincubated together for 15 min at room temperature prior to assay, in order to allow for the formation of the E-I complex. The inhibition constants were obtained by non-linear least-squares methods using PRISM 3 and the Cheng–Prusoff equation, as reported earlier,[29–32] and represent the mean from at least three different determinations.
Method for hCA IX: as §1
Method for hCA XII: as §1

As a reminder, the Ki is the equilibrium dissociation constant of an inhibitor or competing ligand from its target. For orientation: melting point means the temperature of the solid-liquid transition. Regarding `CCOC(=O)c1ccc(NC(=S)NC(=O)c2cccc(NC(=O)C(C)C)c2)cc1` [Compound 9b, Ethyl 4–(3-(3-isobutyramidobenzoyl)thioureido)benzoate], the melting point lay in the range of 245 to 247 °C. The compound further returned a Ki at hCA IX of 300 nM. Affinity on hCA II was put at a Ki of 57.1 nM. On hCA XII, this compound came in with a Ki of over 100000 nM. In addition, at hCA I, the Ki was 8.66 µM.
The compound `CC(=O)Nc1ccc(C(=O)NC(=S)Nc2ccc(S(N)(=O)=O)cc2)cc1` [Compound 7d, 4-Acetamido-N-((4-sulfamoylphenyl)carbamothioyl)benzamide] yielded a melting point of 218 to 220 °C. The compound also registered a Ki at hCA IX of 168 nM. Moreover, on hCA II, affinity was put at a Ki of 701 nM. The compound further came in with a Ki at hCA XII of 97 nM. On hCA I, this compound gave a Ki of 5.45 µM.
Usually IC50 stands for the concentration that inhibits the measured activity by half. Turning to `NS(=O)(=O)c1ccc(NC(=S)NC(=O)c2ccc(Cl)cc2Cl)cc1` [Compound A], the Ki at CA IX (compound A, printed in Figure 2, read-out: Ki hCA IX) was 0.12 nM. Also, in the data set with CA IX (reported for compound A), the IC50 is 0.12 nM.
For `Cc1ccc(C(=O)Nc2cccc(C(=O)NC(=S)Nc3ccc(S(N)(=O)=O)cc3)c2)cc1` [Compound 7c, 3-(4-Methylbenzamido)-N-((4-sulfamoylphenyl)carbamothioyl)benzamide], the melting point lay within 210 to 212 °C. Further, at hCA IX, the affinity corresponds to a Ki of 31.2 nM, the “Selectivity index I/IX” value was 1.0 and the “Selectivity index II/IX” value is 2.0. This compound showed a Ki on hCA II of 56.6 nM. The Ki at hCA XII was over 100000 nM. This compound gave a Ki at hCA I of 0.033 µM.
`CCOC(=O)c1ccc(NC(=S)NC(=O)c2ccc(NC(=O)C(C)C)cc2)cc1` [Compound 9e, Ethyl 4–(3-(4-isobutyramidobenzoyl)thioureido)benzoate] gave a melting point of 245 to 247 °C. Moreover, at hCA IX, the Ki was 29 nM, the “Selectivity index I/IX” value is recorded as 293 and the “Selectivity index II/IX” value was 2.5. This compound came in with a Ki at hCA II of 73.2 nM. The affinity on hCA XII corresponds to a Ki of 202 nM. For the same compound, affinity on hCA I was put at a Ki of 8.5 µM.
For the compound `CCOC(=O)c1ccc(NC(=S)NC(=O)c2ccc(NC(C)=O)cc2)cc1` [Compound 9d, Ethyl 4–(3-(4-acetamidobenzoyl)thioureido)benzoate], the melting point was 237 to 239 °C. The same compound showed a Ki on hCA IX of 1630 nM. On hCA II, this compound came in with a Ki of over 100000 nM. For the same compound, at hCA XII, the Ki is over 100000 nM. Besides, the Ki at hCA I was over 100 µM.
`CC(C)C(=O)Nc1cccc(C(=O)NC(=S)Nc2ccc(C(=O)O)cc2)c1` [Compound 8b, 4-(3-(3-Isobutyramidobenzoyl)thioureido)benzoic acid]: the melting point was 240 to 242 °C. Also, the Ki at hCA IX amounted to 208 nM. The compound further had a Ki at hCA II of over 100000 nM. Besides, the Ki at hCA XII was found to be 142 nM. On hCA I, this compound returned a Ki of over 100 µM.
The matching figures for `CC(=O)Nc1ccc(C(=O)NC(=S)Nc2ccc(C(=O)O)cc2)cc1` [Compound 8d, 4-(3-(4-Acetamidobenzoyl)thioureido)benzoic acid]: 245 to 247 °C, 971 nM, 855 nM, over 100000 nM and over 100 µM.
`Cc1ccc(C(=O)Nc2ccc(C(=O)NC(=S)Nc3ccc(S(N)(=O)=O)cc3)cc2)cc1` [Compound 7f, 4-Methyl-N-(4(((4sulfamoylphenyl)carbamothioyl)carbamoyl)phenyl) benzamide]: the melting point was 228 to 230 °C. At hCA IX, the affinity corresponds to a Ki of 30 nM, the “Selectivity index I/IX” value is on record as 1.4 and the “Selectivity index II/IX” value is given as 1.3. In addition, the Ki at hCA II amounted to 39 nM. This compound also returned a Ki on hCA XII of 106 nM. The compound further displayed a Ki on hCA I of 0.043 µM.
In turn, `CC(C)C(=O)Nc1cccc(C(=O)NC(=S)Nc2ccc(S(N)(=O)=O)cc2)c1` [Compound 7b, 3-Isobutyramido-N-((4-sulfamoylphenyl)carbamothioyl)benzamide] had a melting point of 240 to 242 °C. The same compound had a Ki at hCA IX of 149 nM. The Ki on hCA II amounted to 2.1 nM. On hCA XII, this compound gave a Ki of over 100000 nM. On hCA I, this compound returned a Ki of 0.0563 µM.
The like results for `CCOC(=O)c1ccc(NC(=S)NC(=O)c2ccc(NC(=O)c3ccc(C)cc3)cc2)cc1` [Compound 9f, Ethyl 4–(3-(4–(4-methylbenzamido)benzoyl)thioureido)benzoate] were, in that order, 237 to 239 °C, 1580 nM, over 100000 nM, 155 nM and over 100 µM.
In the case of `CC(=O)Nc1cccc(C(=O)NC(=S)Nc2ccc(C(=O)O)cc2)c1` [Compound 8a, 4-(3-(3-Acetamidobenzoyl)thioureido)benzoic acid], the melting point was 247 to 249 °C. Further, on hCA IX, the Ki was 209 nM. The compound further yielded a Ki on hCA II of 5400 nM. Besides, at hCA XII, the Ki was 17 nM, the “Selectivity index I/XII” value is on record as 481 and the “Selectivity index II/XII” value is listed as 318. Further, the Ki on hCA I was found to be 8.18 µM.
In turn, `CC(C)C(=O)Nc1ccc(C(=O)NC(=S)Nc2ccc(C(=O)O)cc2)cc1` [Compound 8e, 4-(3-(4-Isobutyramidobenzoyl)thioureido)benzoic acid] returned a melting point of 240 to 242 °C. In addition, on hCA IX, the Ki was found to be 898 nM and the “Selectivity index I/IX” value is reported as 293. On hCA II, the affinity corresponds to a Ki of 430 nM. Further, the Ki at hCA XII was determined as 102 nM. The same compound came in with a Ki at hCA I of over 100 µM.
Compound `CCOC(=O)c1ccc(NC(=S)NC(=O)c2cccc(NC(=O)c3ccc(C)cc3)c2)cc1` [Compound 9c, Ethyl 4–(3-(3–(4-methylbenzamido)benzoyl)thioureido)benzoate] returned a melting point of 236 to 238 °C. At hCA IX, the Ki is 251 nM. In addition, the Ki at hCA II worked out at 546 nM. In addition, the Ki on hCA XII is over 100000 nM. Besides, the Ki on hCA I was over 100 µM.
The like results for `Cc1ccc(C(=O)Nc2cccc(C(=O)NC(=S)Nc3ccc(C(=O)O)cc3)c2)cc1` [Compound 8c, 4-(3-(3-(4-Methylbenzamido)benzoyl)thioureido)benzoic acid] were, in that order, 254 to 256 °C, 264 nM, 295 nM, 145 nM and 9.17 µM.
The like results for `CCOC(=O)c1ccc(NC(=S)NC(=O)c2cccc(NC(C)=O)c2)cc1` [Compound 9a, Ethyl 4–(3-(3-acetamidobenzoyl)thioureido)benzoate] were, in that order, 242 to 244 °C, 2130 nM, over 100000 nM, over 100000 nM and 9.04 µM.
Take `Cc1ccc(C(=O)Nc2ccc(C(=O)NC(=S)Nc3ccc(C(=O)O)cc3)cc2)cc1` [Compound 8f, 4-(3-(4–(4-Methylbenzamido)benzoyl)thioureido)benzoic acid]: the melting point lay within 254 to 256 °C. For the same compound, on hCA IX, the Ki was 176 nM. For the same compound, the Ki at hCA II was over 100000 nM. In addition, on hCA XII, the Ki was 11 nM, the “Selectivity index I/XII” value is given as 38 and the “Selectivity index II/XII” value is over 9091. For the same compound, on hCA I, the Ki was 0.422 µM.
For the compound `CC(C)C(=O)Nc1ccc(C(=O)NC(=S)Nc2ccc(S(N)(=O)=O)cc2)cc1` [Compound 7e, 4-Isobutyramido-N-((4-sulfamoylphenyl)carbamothioyl)benzamide], the melting point is 248 to 250 °C. Further, on hCA IX, affinity was put at a Ki of 203 nM. Further, the Ki on hCA II amounted to 39.6 nM. The affinity on hCA XII, expressed as Ki, was 94 nM. The affinity at hCA I, expressed as Ki, was 0.333 µM.
The like results for `CC(=O)Nc1cccc(C(=O)NC(=S)Nc2ccc(S(N)(=O)=O)cc2)c1` [Compound 7a, 3-Acetamido-N-((4-sulfamoylphenyl)carbamothioyl)benzamide] were, in that order, 256 to 258 °C, 238 nM, 2.5 nM, over 100000 nM and 0.0582 µM.

(Values after article PMC9621292, “Design and synthesis of some new benzoylthioureido benzenesulfonamide derivatives and their analogues as carbonic anhydrase inhibitors” (Journal of Enzyme Inhibition and Medicinal Chemistry, 2022).)
